Assay results taken from patent publication US20220267341A1, “SOLID FORMS OF TERT-BUTYL (S)-2((2S,3R)-1-AMINO-3-HYDROXY-1-OXOBU TAN-2-YL)-1-OXO-2, 5-DIAZASPIRO [3.4] OCTAN E-5-CARBOXYLATE AND METHODS OF PREPARING THEM” (NAUREX INC., priority 2019, published 2022).

Key:
Assay type in all cases: physicochemical
[1] = Competitive slurry in mixtures of water and isopropanol; settings: 25° C.
Protocol: Competitive slurry in mixtures of water and isopropanol indicates the phase boundary between the crystalline Form I and crystalline Form II is between water activity of 0.66-0.78 at 25° C. At water activity above 0.78, crystalline Form II is the stable form, whereas at water activity below 0.66, crystalline Form I is the stable form

[2] = DVS water vapor desorption analysis; settings: 25° C.
Protocol: DVS: The following method was used for the water vapor desorption analysis using a DVS Advantage (Surface Measurement Systems). • Temperature: 25° C. • RH program: 95, 90, 80, 70, 60, 50, 40, 35, 30, 20, 10, 0%. • Dm/dt (%/min.): 0.0005 • Minimum equilibrium time: 120 minutes • Maximum equilibrium time: 2000 minutes
The solid was also subjected to DVS measurement and lost about 11% water at 0% RH.

[3] = Dehydration in a TGA pan at 80° C., form checked by XRPD and DSC; settings: ramp to 80° C. at 10° C./min then isothermal for 2 min
Protocol: (§1) In another experiment, about 2 g of crystalline Form I of Compound A from Example 1 was weighed into a 20 mL scintillation vial and 4 mL of Milli-Q water was added into the vial. The resulting suspension was stirred with a spatula and left at room temperature for one day. The residual was then filtered with vacuum and dried in a vacuum oven at room temperature for about 20 hours. XRPD was taken after drying and Form II was confirmed since it was essentially the same as FIG. 3, top panel. […] The dried sample was then dehydrated in a TGA pan at 80° C. (ramp from room temperature to 80° C. at 10° C./min and then isothermal for 2 min).

[4] = Thermogravimetric analysis (TGA); settings: heated from room temperature at 10° C./minute; consistent with a dihydrate
Protocol: TGA: Approximately 5-10 mg sample was heated from room temperature to 250° C. at 10° C./minute.
as §1

[5] = DSC thermogram (dehydration event); settings: 20 to 180° C. at 10° C./min, pin-hole lid
Protocol: DSC: DSC thermograms were obtained using a TA Instruments DSC Q2000. Approximately 1-2 mg of sample was weighed into a Tzero aluminum pan and hermetically sealed with a Tzero hermetic lid. For crystalline Form II samples, the lid was punched with a pin-hole. • DSC: Sample was scanned from 20 to 180° C. at 10° C./min.
as §1

Question: With `C[C@@H](O)[C@@H](C(N)=O)N1C[C@@]2(CCCN2C(=O)OC(C)(C)C)C1=O` [crystalline Form I of Compound A, tert-butyl (S)-2-((2S,3R)-1-amino-3-hydroxy-1-oxobutan-2-yl)-1-oxo-2,5-diazaspiro[3.4]octane-5-carboxylate] as the molecule, how does the “water activity at which the form is the stable form” value [1] read?
Answer: Its value is “below 0.66”.

Question: Which results are given for `C[C@@H](O)[C@@H](C(N)=O)N1C[C@@]2(CCCN2C(=O)OC(C)(C)C)C1=O` [crystalline Form II of Compound A, tert-butyl (S)-2-((2S,3R)-1-amino-3-hydroxy-1-oxobutan-2-yl)-1-oxo-2,5-diazaspiro[3.4]octane-5-carboxylate dihydrate]?
Answer: water lost in DVS ([2]; 0% RH): about 11%; water loss in DVS at or above 20% RH ([2]; at or above 20% RH): did not lose water; solid form after dehydration [3]: mostly crystalline Form I with residual amorphous content and very small amount of crystalline Form II; TGA weight loss [4]: 9.6%; possible dehydration event in DSC [5]: about 82 °C; water activity at which the form is the stable form ([1]; dihydrate): above 0.78
